In US20170000133A1, “BENZOXABOROLE FUNGICIDES” (SYNGENTA PARTICIPATIONS AG, priority 2013, published 2017):

The compounds below were run on Plasmopara viticola (assay: whole plant or invertebrate). Conditions: foliar, read-out: disease control.
Assay type: in vivo

SMILES | pest or weed control at 200 ppm [%]
COC(=O)COC(=O)c1cc2c(cc1Cl)COB2O [Compound 230] | ≥ 80
O=C(OCC#Cc1ccccc1)c1cc2c(cc1Cl)COB2O [Compound 232] | ≥ 80
C=C(C)COC(=O)c1ccc2c(c1)B(O)OC2 [Compound 339] | ≥ 80
C=CCC(OC(=O)c1ccc2c(c1)B(O)OC2)C(=O)OC (centres unmarked) [Compound 348] | ≥ 80
C#CCCOC(=O)c1ccc2c(c1)B(O)OC2 [Compound 355] | ≥ 80
COC(=O)COC(=O)c1ccc2c(c1)B(O)OC2 [Compound 356] | ≥ 80
O=C(OCC#Cc1ccccc1)c1ccc2c(c1)B(O)OC2 [Compound 359] | ≥ 80
COC(=O)C#CCOC(=O)c1ccc2c(c1)B(O)OC2 [Compound 361] | ≥ 80
O=C(OCC(F)F)c1ccc2c(c1)B(O)OC2 [Compound 365] | ≥ 80

Each compound was assayed on Fusarium culmorum (assay: microbe, parasite or virus in culture). Conditions: read-out: disease control (inhibition of growth determined visually).
Assay type: cell-based

SMILES | inhibition at 200 ppm [%]
COC(=O)COC(=O)c1cc2c(cc1Cl)COB2O [Compound 230] | ≥ 80
O=C(OCC#Cc1ccccc1)c1cc2c(cc1Cl)COB2O [Compound 232] | ≥ 80
O=C(OCC#Cc1ccccc1)c1ccc2c(c1)B(O)OC2 [Compound 359] | ≥ 80
COC(=O)C#CCOC(=O)c1ccc2c(c1)B(O)OC2 [Compound 361] | ≥ 80

The compounds below were run on Pythium ultimum (assay: Pythium ultimum / liquid culture (seedling damping off)). Conditions: Globisporangium ultimum; 200 ppm; potato dextrose broth, 24° C., 2-3 days after application; read-out: disease control (inhibition of growth determined photometrically).
Assay type: cell-based

SMILES | inhibition at 200 ppm [%]
COC(=O)COC(=O)c1cc2c(cc1Cl)COB2O [Compound 230] | ≥ 80
O=C(OCC#Cc1ccccc1)c1cc2c(cc1Cl)COB2O [Compound 232] | ≥ 80
C=C(C)COC(=O)c1ccc2c(c1)B(O)OC2 [Compound 339] | ≥ 80
C=CCC(OC(=O)c1ccc2c(c1)B(O)OC2)C(=O)OC (centres unmarked) [Compound 348] | ≥ 80
C#CCCOC(=O)c1ccc2c(c1)B(O)OC2 [Compound 355] | ≥ 80
COC(=O)COC(=O)c1ccc2c(c1)B(O)OC2 [Compound 356] | ≥ 80
O=C(OCC#Cc1ccccc1)c1ccc2c(c1)B(O)OC2 [Compound 359] | ≥ 80
COC(=O)C#CCOC(=O)c1ccc2c(c1)B(O)OC2 [Compound 361] | ≥ 80
O=C(OCC(F)F)c1ccc2c(c1)B(O)OC2 [Compound 365] | ≥ 80

The compounds below were run on Thanatephorus cucumeris (Rhizoctonia solani) (assay: Thanatephorus cucumeris (Rhizoctonia solani) / liquid culture (foot rot, damping-off)). Conditions: PDB potato dextrose broth, 24° C., 3-4 days after application, read-out: disease control (inhibition of growth determined photometrically).
Assay type: cell-based
Method in brief: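 Mycelial fragments from fresh liquid culture were suspended in potato dextrose broth and added to compound in DMSO at 200 ppm. After 3-4 days at 24 °C, growth inhibition was measured photometrically.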

SMILES | inhibition at 200 ppm [%]
COC(=O)COC(=O)c1cc2c(cc1Cl)COB2O [Compound 230] | ≥ 80
O=C(OCC#Cc1ccccc1)c1cc2c(cc1Cl)COB2O [Compound 232] | ≥ 80
C=C(C)COC(=O)c1ccc2c(c1)B(O)OC2 [Compound 339] | ≥ 80
C=CCC(OC(=O)c1ccc2c(c1)B(O)OC2)C(=O)OC (centres unmarked) [Compound 348] | ≥ 80
C#CCCOC(=O)c1ccc2c(c1)B(O)OC2 [Compound 355] | ≥ 80
COC(=O)COC(=O)c1ccc2c(c1)B(O)OC2 [Compound 356] | ≥ 80
O=C(OCC#Cc1ccccc1)c1ccc2c(c1)B(O)OC2 [Compound 359] | ≥ 80
COC(=O)C#CCOC(=O)c1ccc2c(c1)B(O)OC2 [Compound 361] | ≥ 80

These compounds were tested on Sclerotinia sclerotiorum (assay: Sclerotinia sclerotiorum / liquid culture (cottony rot)). Conditions: PDB potato dextrose broth, 24° C., 3-4 days after application, read-out: disease control (inhibition of growth determined visually).
Assay type: cell-based
Description: 18. Sclerotinia sclerotiorum/Liquid Culture (Cottony Rot): Mycelia fragments of a newly grown liquid culture of the fungus were directly mixed into nutrient broth (PDB potato dextrose broth). After placing a (DMSO) solution of the test compounds into a microtiter plate (96-well format) the nutrient broth containing the fungal material was added. The test plates were incubated at 24° C. and the inhibition of growth was determined visually 3-4 days after application.

SMILES | inhibition at 200 ppm [%]
COC(=O)COC(=O)c1cc2c(cc1Cl)COB2O [Compound 230] | ≥ 80
O=C(OCC#Cc1ccccc1)c1ccc2c(c1)B(O)OC2 [Compound 359] | ≥ 80
COC(=O)C#CCOC(=O)c1ccc2c(c1)B(O)OC2 [Compound 361] | ≥ 80

What follows are compounds tested on Puccinia recondita f. sp. tritici (assay: Puccinia recondita f. sp. tritici / wheat / leaf disc preventative (brown rust)). Conditions: foliar, wheat leaf segments cv Kanzler, inoculated 1 day after application, assessed 7-9 days after application, read-out: disease control.
Assay type: in vivo
Description: 3. Puccinia recondita f. sp. tritici/Wheat/Leaf Disc Preventative (Brown Rust): Wheat leaf segments cultivated variety (cv) Kanzler were placed on agar in 24-well plates and sprayed with formulated test compound diluted in water at an application rate of 200 ppm. The leaf disks were inoculated with a spore suspension of the fungus 1 day after application.

SMILES | pest or weed control at 200 ppm [%]
COC(=O)COC(=O)c1ccc2c(c1)B(O)OC2 [Compound 356] | ≥ 80

These compounds were tested on Glomerella lagenarium (Colletotrichum lagenarium) (assay: Glomerella lagenarium (Colletotrichum lagenarium) / liquid culture (anthracnose)). Conditions: Colletotrichum orbiculare, PDB potato dextrose broth, 24° C., 3-4 days after application, read-out: disease control (inhibition of growth measured photometrically).
Assay type: cell-based
Method in brief: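 Conidia of G. lagenarium from cryogenic storage were suspended in potato dextrose broth and added to test compound in DMSO at 200 ppm. Plates were incubated at 24° C, and growth inhibition was read photometrically 3-4 days after application.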

SMILES | inhibition at 200 ppm [%]
COC(=O)COC(=O)c1cc2c(cc1Cl)COB2O [Compound 230] | ≥ 80
O=C(OCC#Cc1ccccc1)c1cc2c(cc1Cl)COB2O [Compound 232] | ≥ 80
C=C(C)COC(=O)c1ccc2c(c1)B(O)OC2 [Compound 339] | ≥ 80
C=CCC(OC(=O)c1ccc2c(c1)B(O)OC2)C(=O)OC (centres unmarked) [Compound 348] | ≥ 80
C#CCCOC(=O)c1ccc2c(c1)B(O)OC2 [Compound 355] | ≥ 80
COC(=O)COC(=O)c1ccc2c(c1)B(O)OC2 [Compound 356] | ≥ 80
COC(=O)C#CCOC(=O)c1ccc2c(c1)B(O)OC2 [Compound 361] | ≥ 80

The compounds below were run on Phaeosphaeria nodorum (Septoria nodorum) (assay: Phaeosphaeria nodorum (Septoria nodorum) / wheat / leaf disc preventative (glume blotch)). Conditions: Parastagonospora nodorum, foliar, wheat leaf segments cv Kanzler, inoculated 2 days after application, assessed 5-7 days after application, read-out: disease control.
Assay type: in vivo
Description: 5. Phaeosphaeria nodorum (Septoria nodorum)/Wheat/Leaf Disc Preventative (Glume Blotch): Wheat leaf segments (cv) Kanzler were placed on agar in a 24-well plate and sprayed with formulated test compound diluted in water at an application rate of 200 ppm. The leaf disks were inoculated with a spore suspension of the fungus 2 days after application. The inoculated test leaf disks were incubated at 20° C. and 75% relative humidity under a light regime of 12/12 h (light/dark) in a climate cabinet and the activity of a compound was assessed as percent disease control compared to untreated when an appropriate level of disease damage appears in untreated check leaf disks (5-7 days after application).

SMILES | pest or weed control at 200 ppm [%]
O=C(OCC#Cc1ccccc1)c1cc2c(cc1Cl)COB2O [Compound 232] | ≥ 80

The compounds below were run on Botryotinia fuckeliana (Botrytis cinerea) (assay: Botryotinia fuckeliana (Botrytis cinerea) / liquid culture (gray mould)). Conditions: Vogels broth, 24° C., 3-4 days after application, read-out: disease control (inhibition of growth determined photometrically).
Assay type: cell-based
Description: 10. Botryotinia fuckeliana (Botrytis cinerea)/Liquid Culture (Gray Mould): Conidia of the fungus from cryogenic storage were directly mixed into nutrient broth (Vogels broth). After placing a DMSO solution of test compound into a 96-well microtiter plate at an application rate of 200 ppm, the nutrient broth containing the fungal spores was added. The test plates were incubated at 24° C. and the inhibition of growth was determined photometrically 3-4 days after application.

SMILES | inhibition at 200 ppm [%]
O=C(OCC#Cc1ccccc1)c1ccc2c(c1)B(O)OC2 [Compound 359] | ≥ 80
COC(=O)C#CCOC(=O)c1ccc2c(c1)B(O)OC2 [Compound 361] | ≥ 80

What follows are compounds tested on Puccinia recondita f. sp. tritici (assay: Puccinia recondita f. sp. tritici / wheat / leaf disc curative (brown rust)). Conditions: foliar, 192 h, wheat leaf segments, applied one day after inoculation, assessed 8 dpi, read-out: disease control.
Assay type: in vivo
Description: 4. Puccinia recondita f. sp. tritici/Wheat/Leaf Disc Curative (Brown Rust) Wheat leaf segments are placed on agar in multiwell plates (24-well format). The leaf disks are then inoculated with a spore suspension of the fungus. One day after inoculation the test solution is applied. After appropriate incubation the activity of a compound is assessed 8 dpi (days after inoculation) as curative fungicidal activity. Dose range: 200-22 ppm.

SMILES | pest or weed control at 200 ppm [%]
COC(=O)COC(=O)c1cc2c(cc1Cl)COB2O [Compound 230] | ≥ 80
C=C(C)COC(=O)c1ccc2c(c1)B(O)OC2 [Compound 339] | ≥ 80
C=CCC(OC(=O)c1ccc2c(c1)B(O)OC2)C(=O)OC (centres unmarked) [Compound 348] | ≥ 80
C#CCCOC(=O)c1ccc2c(c1)B(O)OC2 [Compound 355] | ≥ 80
COC(=O)COC(=O)c1ccc2c(c1)B(O)OC2 [Compound 356] | ≥ 80
O=C(OCC(F)F)c1ccc2c(c1)B(O)OC2 [Compound 365] | ≥ 80

These compounds were tested on Gaeumannomyces graminis (assay: Gaeumannomyces graminis / liquid culture (take-all of cereals)). Conditions: PDB potato dextrose broth, 24° C., 4-5 days after application, read-out: disease control (inhibition of growth determined photometrically).
Assay type: cell-based
Method in brief: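 Cryo-stored mycelial fragments in potato dextrose broth exposed to compound in DMSO at 200 ppm. Incubated at 24 °C; growth inhibition read photometrically 4–5 days after application.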

SMILES | inhibition at 200 ppm [%]
COC(=O)COC(=O)c1cc2c(cc1Cl)COB2O [Compound 230] | ≥ 80
O=C(OCC#Cc1ccccc1)c1cc2c(cc1Cl)COB2O [Compound 232] | ≥ 80
C=C(C)COC(=O)c1ccc2c(c1)B(O)OC2 [Compound 339] | ≥ 80
C#CCCOC(=O)c1ccc2c(c1)B(O)OC2 [Compound 355] | ≥ 80
COC(=O)COC(=O)c1ccc2c(c1)B(O)OC2 [Compound 356] | ≥ 80
O=C(OCC#Cc1ccccc1)c1ccc2c(c1)B(O)OC2 [Compound 359] | ≥ 80
COC(=O)C#CCOC(=O)c1ccc2c(c1)B(O)OC2 [Compound 361] | ≥ 80
O=C(OCC(F)F)c1ccc2c(c1)B(O)OC2 [Compound 365] | ≥ 80

Each compound was assayed on Mycosphaerella graminicola (Septoria tritici) (assay: Mycosphaerella graminicola (Septoria tritici) / liquid culture (Septoria blotch)). Conditions: Zymoseptoria tritici, PDB potato dextrose broth, 24° C., 4-5 days after application, read-out: disease control (inhibition of growth determined photometrically).
Assay type: cell-based
Method in brief: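 Conidia from cryostorage were suspended in potato dextrose broth and added to test compound in DMSO at 200 ppm in microtiter wells. Plates were incubated at 24° C and growth inhibition measured photometrically 4-5 days after application.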

SMILES | inhibition at 200 ppm [%]
COC(=O)COC(=O)c1cc2c(cc1Cl)COB2O [Compound 230] | ≥ 80
O=C(OCC#Cc1ccccc1)c1cc2c(cc1Cl)COB2O [Compound 232] | ≥ 80
C=C(C)COC(=O)c1ccc2c(c1)B(O)OC2 [Compound 339] | ≥ 80
C#CCCOC(=O)c1ccc2c(c1)B(O)OC2 [Compound 355] | ≥ 80
O=C(OCC#Cc1ccccc1)c1ccc2c(c1)B(O)OC2 [Compound 359] | ≥ 80
COC(=O)C#CCOC(=O)c1ccc2c(c1)B(O)OC2 [Compound 361] | ≥ 80

The compounds below were run on Monographella nivalis (Microdochium nivale) (assay: Monographella nivalis (Microdochium nivale) / liquid culture (foot rot cereals)). Conditions: PDB potato dextrose broth, 24° C., 4-5 days after application, read-out: disease control (inhibition of growth determined photometrically).
Assay type: cell-based

SMILES | inhibition at 200 ppm [%]
COC(=O)COC(=O)c1cc2c(cc1Cl)COB2O [Compound 230] | ≥ 80
O=C(OCC#Cc1ccccc1)c1cc2c(cc1Cl)COB2O [Compound 232] | ≥ 80
C=C(C)COC(=O)c1ccc2c(c1)B(O)OC2 [Compound 339] | ≥ 80
C#CCCOC(=O)c1ccc2c(c1)B(O)OC2 [Compound 355] | ≥ 80
COC(=O)COC(=O)c1ccc2c(c1)B(O)OC2 [Compound 356] | ≥ 80
O=C(OCC#Cc1ccccc1)c1ccc2c(c1)B(O)OC2 [Compound 359] | ≥ 80
COC(=O)C#CCOC(=O)c1ccc2c(c1)B(O)OC2 [Compound 361] | ≥ 80

These compounds were tested on Mycosphaerella arachidis (Cercospora arachidicola) (assay: Mycosphaerella arachidis (Cercospora arachidicola) / liquid culture (early leaf spot)). Conditions: PDB potato dextrose broth, 24° C., 4-5 days after application, read-out: disease control (inhibition of growth determined photometrically).
Assay type: cell-based
Method in brief: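 Conidia from cryogenic storage mixed into potato dextrose broth and added to compound at 200 ppm in DMSO. Incubation at 24° C.; growth inhibition read photometrically 4-5 days after application.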

SMILES | inhibition at 200 ppm [%]
COC(=O)COC(=O)c1cc2c(cc1Cl)COB2O [Compound 230] | ≥ 80
O=C(OCC#Cc1ccccc1)c1cc2c(cc1Cl)COB2O [Compound 232] | ≥ 80
C=C(C)COC(=O)c1ccc2c(c1)B(O)OC2 [Compound 339] | ≥ 80
C=CCC(OC(=O)c1ccc2c(c1)B(O)OC2)C(=O)OC (centres unmarked) [Compound 348] | ≥ 80
C#CCCOC(=O)c1ccc2c(c1)B(O)OC2 [Compound 355] | ≥ 80
COC(=O)COC(=O)c1ccc2c(c1)B(O)OC2 [Compound 356] | ≥ 80
O=C(OCC#Cc1ccccc1)c1ccc2c(c1)B(O)OC2 [Compound 359] | ≥ 80
COC(=O)C#CCOC(=O)c1ccc2c(c1)B(O)OC2 [Compound 361] | ≥ 80
O=C(OCC(F)F)c1ccc2c(c1)B(O)OC2 [Compound 365] | ≥ 80
